The target of one assay is T1, kinase domain of cKIT (Homo sapiens, UniProt P10721).
T1 construct: The kinase domain of cKIT was assayed in 50 mM Hepes; purchased Upstate 14-559
The assay is described as follows: Inhibition of cKIT kinase signaling in an in vitro biochemical assay (alphascreen). Conditions: tested at about 1 μM, read-out: cKit percent inhibition. (In general: In Alpha technology, singlet oxygen from a donor bead excites a nearby acceptor bead.)

A further assay deals with T2, kinase domain of PDGFRβ (Homo sapiens, UniProt P09619).
T2 construct: The kinase domain of PDGFRβ was assayed in 50 mM Hepes; purchased Invitrogen P3082
T2 sequence (P09619 600-962 limits assumed): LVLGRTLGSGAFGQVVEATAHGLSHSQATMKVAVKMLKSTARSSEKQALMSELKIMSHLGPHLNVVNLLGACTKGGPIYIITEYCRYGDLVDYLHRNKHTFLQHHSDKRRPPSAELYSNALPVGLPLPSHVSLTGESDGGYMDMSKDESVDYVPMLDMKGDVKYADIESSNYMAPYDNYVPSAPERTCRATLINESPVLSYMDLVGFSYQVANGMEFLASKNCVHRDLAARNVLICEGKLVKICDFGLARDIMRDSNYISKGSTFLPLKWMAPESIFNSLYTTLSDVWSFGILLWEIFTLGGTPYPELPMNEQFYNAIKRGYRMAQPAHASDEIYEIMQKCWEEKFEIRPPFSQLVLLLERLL
In words: Inhibition of PDGFRb kinase signaling in an in vitro biochemical assay (alphascreen). Conditions: tested at about 1 μM, read-out: PDGFRβ percent inhibition.

Assay [1] has as its target T3, cytoplasmic domain of the human CSF-1R (Homo sapiens, UniProt P07333).
T3 construct: Recombinant protein corresponding to the cytoplasmic domain of the human CSF-1R; purchased Invitrogen Corporation, Carlsbad, Calif; PV3249
T3 sequence (P07333 539-972 limits assumed): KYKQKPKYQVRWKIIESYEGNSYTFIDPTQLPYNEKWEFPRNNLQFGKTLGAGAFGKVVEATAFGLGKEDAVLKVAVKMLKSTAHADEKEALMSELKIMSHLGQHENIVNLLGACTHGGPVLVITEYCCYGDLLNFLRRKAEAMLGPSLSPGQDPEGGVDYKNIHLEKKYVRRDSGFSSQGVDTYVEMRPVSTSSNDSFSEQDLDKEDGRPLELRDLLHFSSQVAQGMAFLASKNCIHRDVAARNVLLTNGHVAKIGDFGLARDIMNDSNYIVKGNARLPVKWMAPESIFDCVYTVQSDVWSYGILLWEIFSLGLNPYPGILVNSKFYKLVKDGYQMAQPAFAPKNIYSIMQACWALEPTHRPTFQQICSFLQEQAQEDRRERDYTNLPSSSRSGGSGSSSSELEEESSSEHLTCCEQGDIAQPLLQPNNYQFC
The assay is described as follows: In vitro kinase assay for colony stimulating factor-1 receptor (AlphaScreen). It counts as biochemical. Conditions: tested at about 1 μM, read-out: CSF-1R percent inhibition. Put shortly: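 Test compounds, serially diluted threefold starting at 25 μM, were mixed with Hepes buffer (pH 7.5, Mg2+/Mn2+, DTT, BSA, Tween 80) containing 1 μM ATP. Recombinant kinase was present at 4 nM. After stopping, beads were added and plates were read the next day by AlphaScreen.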

Assay [2] deals with T4, full-length human CSF-1R receptor (Homo sapiens, UniProt P07333).
T4 construct: transfected with the full-length human CSF-1R receptor cloned in house; expressed in transfected cells; host or cells: HEK293H (Invitrogen Cat. #11631017)
T4 sequence (P07333 20-972): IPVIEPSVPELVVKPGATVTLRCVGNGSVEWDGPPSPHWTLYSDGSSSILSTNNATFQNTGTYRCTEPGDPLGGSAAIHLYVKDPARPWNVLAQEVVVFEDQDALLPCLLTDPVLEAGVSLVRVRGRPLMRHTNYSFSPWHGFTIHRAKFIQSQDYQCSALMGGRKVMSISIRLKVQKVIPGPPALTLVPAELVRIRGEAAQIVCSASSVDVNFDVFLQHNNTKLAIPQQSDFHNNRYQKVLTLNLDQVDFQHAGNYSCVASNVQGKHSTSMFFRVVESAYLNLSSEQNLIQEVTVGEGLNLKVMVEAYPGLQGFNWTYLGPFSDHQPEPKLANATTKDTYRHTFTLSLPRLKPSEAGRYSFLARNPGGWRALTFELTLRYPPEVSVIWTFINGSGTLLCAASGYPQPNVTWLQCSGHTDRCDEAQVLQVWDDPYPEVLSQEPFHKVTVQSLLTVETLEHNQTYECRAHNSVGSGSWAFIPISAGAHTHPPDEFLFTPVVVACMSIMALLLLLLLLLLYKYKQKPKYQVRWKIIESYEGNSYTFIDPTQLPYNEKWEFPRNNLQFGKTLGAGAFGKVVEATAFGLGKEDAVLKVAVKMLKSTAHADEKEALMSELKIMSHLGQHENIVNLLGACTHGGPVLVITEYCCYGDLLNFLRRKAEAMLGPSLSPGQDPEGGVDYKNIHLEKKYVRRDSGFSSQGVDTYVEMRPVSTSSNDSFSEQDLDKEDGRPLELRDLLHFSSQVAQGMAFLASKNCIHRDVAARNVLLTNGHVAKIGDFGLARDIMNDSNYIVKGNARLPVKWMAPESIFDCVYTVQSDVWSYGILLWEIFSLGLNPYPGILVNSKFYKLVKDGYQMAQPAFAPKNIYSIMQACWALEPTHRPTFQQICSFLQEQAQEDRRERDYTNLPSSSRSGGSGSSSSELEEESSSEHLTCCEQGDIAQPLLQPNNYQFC
The assay is described as follows: In vitro inhibition of CSF-1R receptor tyrosine phosphorylation in transfected HEK293H cells stimulated with MCSF. It counts as cell-based. Conditions: HEK293-H, tested at about 1 μM, read-out: pCSF1R percent inhibition. How it is done:
The lysate was then transferred to total CSF-1R antibody coated 96-well plates that had already been blocked with 3% Blocker A from Mesoscale discovery (MSD) for 2 hours and washed afterwards. Lysates were incubated overnight at 4° C. and the plates were then washed 4× with MSD Tris Wash Buffer. […] The plates were read on the Sector 6000 instrument (MSD). Raw data was imported in Abase and EC50s calculated with XL-fit data analysis software.

Assay [3] deals with MNFS60 (murine AML cells). In words: Cell viability assay in MCSF dependent MNFS60 cells (Cell Titer Glo). Conditions: Mus musculus, tested at about 1 μM, read-out: M-NFS-60 CP percent inhibition. The assay is classed as cell-based. Put shortly: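 Viability was read by Cell Titer Glo after 72 hrs at 37° C., 5% CO2, with triplicate conditions. Compounds were titrated 3-fold into MNFS60 cultures whose final MCSF level was 10 ng/ml. EC50 values came from curve fitting.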
For orientation: In ATP-based viability assays light output follows the ATP content of the culture.

As usually defined, the inhibition is the change of the read-out against control, counted positive when it falls.

Structures are written as SMILES. Read-outs that look alike come from different tables or passages of the source.

T1 sequence (P10721 589-937 limits assumed): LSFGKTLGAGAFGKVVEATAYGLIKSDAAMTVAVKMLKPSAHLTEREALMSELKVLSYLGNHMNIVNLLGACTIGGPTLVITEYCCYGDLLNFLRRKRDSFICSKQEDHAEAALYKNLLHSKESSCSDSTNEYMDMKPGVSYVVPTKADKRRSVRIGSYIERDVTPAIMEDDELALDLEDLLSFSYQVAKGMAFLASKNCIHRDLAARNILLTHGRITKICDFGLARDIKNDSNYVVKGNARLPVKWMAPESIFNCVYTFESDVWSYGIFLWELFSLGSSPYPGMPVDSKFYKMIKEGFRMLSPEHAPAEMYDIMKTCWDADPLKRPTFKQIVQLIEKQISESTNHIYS

With `Nc1ncc(-c2cc(Oc3ccc4nc(N[C@@H]5CCCC[C@H]5O)sc4c3)ccn2)cn1` [Example 346, (1R,2R)-2-(6-(2-(2-aminopyrimidin-5-yl)pyridin-4-yloxy)benzo[d]thiazol-2-ylamino)cyclohexanol], the inhibition at 1 µM at kinase domain of cKIT was 13%; on kinase domain of PDGFRβ, 0%; in assay [1] it was 100%; in assay [2] (HEK293H cells), 84%; in assay [3] (MCSF dependent MNFS60 cells), 67%.
Turning to `CNC(=O)c1cc(Oc2ccc3nc(Nc4ccccc4-n4ccnc4C)oc3c2)ccn1` [Compound 47, 4-{2-[2-(2-Methyl-imidazol-1-yl)-phenylamino]-benzooxazol-6-yloxy}-pyridine-2-carboxylic acid methylamide], the inhibition at 1 µM came out at 0% at kinase domain of cKIT (compounds of Table 3); 55% at kinase domain of cKIT (compounds of Table 4); 4% on kinase domain of PDGFRβ (compounds of Table 3); 31% at kinase domain of PDGFRβ (compounds of Table 4); 12% at kinase domain of PDGFRβ; 100% in assay [1] (compounds of Table 3). Besides, the inhibition at 1 µM was 100% in assay [1] (compounds of Table 4); 13% in assay [1]; 83% in assay [2] (compounds of Table 3); 79% in assay [2] (compounds of Table 4); 55% in assay [3] (compounds of Table 3); 58% in assay [3] (compounds of Table 4).
As for `c1cc(Oc2ccc3nc(NCC4CCCCC4)sc3c2)cc(-c2ncco2)n1` [Example 342, N-(cyclohexylmethyl)-6-(2-(oxazol-2-yl)pyridin-4-yloxy)benzo[d]thiazol-2-amine], the inhibition at 1 µM was determined as 84% at kinase domain of cKIT; 61% at kinase domain of PDGFRβ; 100% in assay [1]; 87% in assay [2] (HEK293H cells); 75% in assay [3] (MCSF dependent MNFS60 cells).
For `CNC(=O)c1cc(Oc2ccc3nc(N[C@H]4CCCN(C(=O)C(C)C)C4)sc3c2)ccn1` [Example 334, (S)-4-(2-(1-isobutyrylpiperidin-3-ylamino)benzo[d]thiazol-6-yloxy)-N-methylpicolinamide] the same measures were 20%, 15%, 100%, 71% and 67%.
`O[C@@H]1CCCC[C@H]1Nc1nc2ccc(Oc3ccnc(-c4ccc(F)nc4)c3)cc2s1` [Cmpd 173, (1R,2R)-2-(6-(6'-fluoro-2,3'-bipyridin-4-yloxy)benzo[d]thiazol-2-ylamino)cyclohexanol]: the inhibition at 1 µM at kinase domain of cKIT (compounds of Table 3) stood at 18%; on kinase domain of PDGFRβ (compounds of Table 3) it was 8%; in assay [1] (compounds of Table 3), 100%; in assay [2] (compounds of Table 3) it was 81%; in assay [3] (compounds of Table 3), 52%.
For `CNC(=O)c1cc(Oc2ccc3nc(N[C@@H]4CCCC[C@H]4N)sc3c2)ccn1` [Example 297, 4-(2-((1R,2R)-2-aminocyclohexylamino)benzo[d]thiazol-6-yloxy)-N-methylpicolinamide], in that order: 0%, 9%, 98%, 90% and 42%.
On to `CNC(=O)c1cc(Oc2ccc3nc(NCc4cc(OC)ccc4OC)sc3c2)ccn1` [Compound 146, 4-[2-(2,5-Dimethoxy-benzyl-amino)-benzothiazol-6-yloxy]-pyridine-2-carboxylic acid methylamide], for which the inhibition at 1 µM on kinase domain of cKIT is 5%; at kinase domain of PDGFRβ, 3%; in assay [1], 99%; in assay [2] (HEK293H cells), 86%; in assay [3] (MNFS60 cells), 56%.
For `CNC(=O)c1cc(Oc2ccc3nc(N[C@H]4c5ccccc5C[C@H]4O)sc3c2)ccn1` [Example 321, 4-(2-((1S,2R)-2-hydroxy-2,3-dihydro-1H-inden-1-ylamino)benzo[d]thiazol-6-yloxy)-N-methylpicolinamide], the inhibition at 1 µM came to 52% at kinase domain of cKIT; 41% at kinase domain of PDGFRβ; 100% in assay [1]; 97% in assay [2] (HEK293H cells); 82% in assay [3] (MCSF dependent MNFS60 cells).
Take `CNC(=O)c1cc(Oc2ccc3nc(NCC4CCCCC4)sc3c2)ccn1` [Compound 128, 4-[2-(Cyclohexylmethyl-amino)-benzothiazol-6-yloxy]-pyridine-2-carboxylic acid methylamide]: the inhibition at 1 µM came out at 90% at kinase domain of cKIT; 83% on kinase domain of PDGFRβ; 100% in assay [1]; 95% in assay [2] (HEK293H cells); 95% in assay [3] (MNFS60 cells).
With `CNC(=O)c1cc(Oc2ccc3nc(NCc4cc(F)ccc4F)sc3c2)ccn1` [Compound 139, 4-[2-(2,5-Difluoro-benzylamino)-benzothiazol-6-yloxy]-pyridine-2-carboxylic acid methylamide], the inhibition at 1 µM on kinase domain of cKIT amounted to 21%; at kinase domain of PDGFRβ, 0%; in assay [1] it was 100%; in assay [2] (HEK293H cells), 94%; in assay [3] (MNFS60 cells), 48%.
For the compound `c1ccc2c(Oc3ccc4nc(N[C@@H]5C[C@H]6CC[C@@H]5C6)sc4c3)ccnc2c1` [Example 251, N-((1R,2R,4S)-bicyclo[2.2.1]heptan-2-yl)-6-(quinolin-4-yloxy)benzo[d]thiazol-2-amine], the inhibition at 1 µM on kinase domain of cKIT (compounds of Table 3) is 56%; on kinase domain of PDGFRβ (compounds of Table 3) it was 28%; in assay [1] (compounds of Table 3), 100%; in assay [2] (compounds of Table 3), 74%; in assay [3] (compounds of Table 3), 80%.
On to `O[C@@H]1CCCC[C@H]1Nc1nc2ccc(Oc3ccnc(-c4ccncc4)c3)cc2s1` [Example 280, (1R,2R)-2-(6-(2,4'-bipyridin-4-yloxy)benzo[d]thiazol-2-ylamino)cyclohexanol], for which the inhibition at 1 µM was found to be 11% on kinase domain of cKIT (compounds of Table 3); 22% on kinase domain of PDGFRβ (compounds of Table 3); 100% in assay [1] (compounds of Table 3); 65% in assay [2] (compounds of Table 3); 100% in assay [3] (compounds of Table 3).
With `CCCn1cc(-c2cc(Oc3ccc4nc(N[C@@H]5CCCC[C@H]5O)sc4c3)ccn2)cn1` [Example 281, (1R,2R)-2-(6-(2-(1-propyl-1H-pyrazol-4-yl)pyridin-4-yloxy)benzo[d]thiazol-2-ylamino)cyclohexanol], the inhibition at 1 µM on kinase domain of cKIT (compounds of Table 3) came out at 22%; on kinase domain of PDGFRβ (compounds of Table 3), 36%; in assay [1] (compounds of Table 3), 100%; in assay [2] (compounds of Table 3), 96%; in assay [3] (compounds of Table 3) it was 100%.
On to `CNC(=O)c1cc(Oc2ccc3nc(NCc4ccncc4)sc3c2)ccn1` [Compound 139], for which the inhibition at 1 µM is 24% on kinase domain of cKIT (compounds of Table 3); 19% at kinase domain of PDGFRβ (compounds of Table 3); 100% in assay [1] (compounds of Table 3); 88% in assay [2] (compounds of Table 3); 46% in assay [3] (compounds of Table 3).
With `N#Cc1ccc2c(Oc3ccc4nc(N[C@@H]5CCCC[C@H]5O)sc4c3)ccnc2c1` [Example 222, 4-(2-((1R,2R)-2-hydroxycyclohexylamino)benzo[d]thiazol-6-yloxy)quinoline-7-carbonitrile], the inhibition at 1 µM on kinase domain of cKIT (compounds of Table 3) turned out to be 52%; at kinase domain of PDGFRβ (compounds of Table 3), 69%; in assay [1] (compounds of Table 3) it was 100%; in assay [2] (compounds of Table 3), 68%; in assay [3] (compounds of Table 3), 91%.

The values above are taken from US8173689B2 (Novartis AG, priority 2006, dated 2012).
